Holding throughout (experiment): SRB assay, IMT combined with inhibitor
Type in all cases: cell-based
For orientation: Sulforhodamine B stains cellular protein and so reports cell mass.

One experiment concerns U87MG. Particulars: U87MG (brain); concentration series of the labelled inhibitor + fixed concentration of IMT (3S)-1-[(2R)-2-[4-(2-chloro-4-fluoro-phenyl)-2-oxo-chromen-7-yl]oxypropanoyl]piperidine-3-carboxylic acid (Table 3: 40 nM, 120 h); negative=synergistic, positive=antagonistic. As to the method: (§1) Solforhodamine B assay is carried out as described in Voigt W. (2005) Sulforhodamine B Assay and Chemosensitivity. (Methods in Molecular Medicine™, vol 110. Humana Press. https://doi.org/10.1385/1-59259-869-2:039).
(§2) The determination of changes in cellular biomass was based on the Solforhodamine B assay format, carried out as described in Voigt W. (2005) Sulforhodamine B Assay and Chemosensitivity. (Methods in Molecular Medicine™, vol 110. Humana Press. https://doi.org/10.1385/1-59259-869-2:039).
(§3) All in vitro cell culture experiments were carried out under near physiological glucose concentrations (5 mM) in at least two independent replicates.
(§4) First, 30 different cell lines from 14 different tissue types were tested in the SRB assay format. The cells were examined individually for changes in growth over a period of 120 hours with dilution series of both inhibitors. Untreated cells were used as a negative control group. Subsequently, a dilution series of the respective MAPK signalling pathway SOCs was treated in combination with a fixed concentration of 40 nM (3S)-1-[(2R)-2-[4-(2-chloro-4-fluoro-phenyl)-2-oxo-chromen-7-yl]oxypropanoyl]piperidine-3-carboxylic acid.

A further experiment has as its system HEPG2. The conditions noted are these: HEPG2 (liver); concentration series of the labelled inhibitor + fixed concentration of IMT (3S)-1-[(2R)-2-[4-(2-chloro-4-fluoro-phenyl)-2-oxo-chromen-7-yl]oxypropanoyl]piperidine-3-carboxylic acid (Table 3: 40 nM, 120 h); negative=synergistic, positive=antagonistic. The protocol: as §1, §2, §3, §4
The next experiment has as its system MHHES1. Particulars: MHHES1 (bone); concentration series of the labelled inhibitor + fixed concentration of IMT (3S)-1-[(2R)-2-[4-(2-chloro-4-fluoro-phenyl)-2-oxo-chromen-7-yl]oxypropanoyl]piperidine-3-carboxylic acid (Table 3: 40 nM, 120 h); negative=synergistic, positive=antagonistic. As to the method:
as §1, §2, §3, §4

The next experiment deals with MIAPACA2. Particulars: MIAPACA2 (pancreas); concentration series of the labelled inhibitor + fixed concentration of IMT (3S)-1-[(2R)-2-[4-(2-chloro-4-fluoro-phenyl)-2-oxo-chromen-7-yl]oxypropanoyl]piperidine-3-carboxylic acid (Table 3: 40 nM, 120 h); negative=synergistic, positive=antagonistic. The protocol: as §1, §2, §3, §4
The test system of a further experiment is A549. The conditions noted are these: A549 (lung); concentration series of the labelled inhibitor + fixed concentration of IMT (3S)-1-[(2R)-2-[4-(2-chloro-4-fluoro-phenyl)-2-oxo-chromen-7-yl]oxypropanoyl]piperidine-3-carboxylic acid (Table 3: 40 nM, 120 h); negative=synergistic, positive=antagonistic. As to the method: as §1, §2, §3, §4
In a further experiment the test system is A375. Particulars: A375 (skin); concentration series of the labelled inhibitor + fixed concentration of IMT (3S)-1-[(2R)-2-[4-(2-chloro-4-fluoro-phenyl)-2-oxo-chromen-7-yl]oxypropanoyl]piperidine-3-carboxylic acid (Table 3: 40 nM, 120 h); negative=synergistic, positive=antagonistic. The protocol: as §1, §2, §3, §4
A further experiment relates to MV4-11. The conditions noted are these: MV4-11 (hematological); concentration series of the labelled inhibitor + fixed concentration of IMT (3S)-1-[(2R)-2-[4-(2-chloro-4-fluoro-phenyl)-2-oxo-chromen-7-yl]oxypropanoyl]piperidine-3-carboxylic acid (Table 3: 40 nM, 120 h); negative=synergistic, positive=antagonistic. The protocol: as §1, §2, §3, §4
In a further experiment the test system is CALU6. Particulars: CALU6 (lung); concentration series of the labelled inhibitor + fixed concentration of IMT (3S)-1-[(2R)-2-[4-(2-chloro-4-fluoro-phenyl)-2-oxo-chromen-7-yl]oxypropanoyl]piperidine-3-carboxylic acid (Table 3: 40 nM, 120 h); negative=synergistic, positive=antagonistic. The protocol:
as §1, §2, §3, §4

The subject of a further experiment is DU145. The conditions noted are these: DU145 (prostate); concentration series of the labelled inhibitor + fixed concentration of IMT (3S)-1-[(2R)-2-[4-(2-chloro-4-fluoro-phenyl)-2-oxo-chromen-7-yl]oxypropanoyl]piperidine-3-carboxylic acid (Table 3: 40 nM, 120 h); negative=synergistic, positive=antagonistic. As to the method: as §1, §2, §3, §4
Another experiment has as its system COLO205. Particulars: COLO205 (colon); concentration series of the labelled inhibitor + fixed concentration of IMT (3S)-1-[(2R)-2-[4-(2-chloro-4-fluoro-phenyl)-2-oxo-chromen-7-yl]oxypropanoyl]piperidine-3-carboxylic acid (Table 3: 40 nM, 120 h); negative=synergistic, positive=antagonistic. As to the method:
as §1, §2, §3, §4

The subject of a further experiment is PANC1. The conditions noted are these: PANC1 (pancreas); concentration series of the labelled inhibitor + fixed concentration of IMT (3S)-1-[(2R)-2-[4-(2-chloro-4-fluoro-phenyl)-2-oxo-chromen-7-yl]oxypropanoyl]piperidine-3-carboxylic acid (Table 3: 40 nM, 120 h); negative=synergistic, positive=antagonistic. The protocol: as §1, §2, §3, §4
In the next experiment the test system is IMR90. The conditions noted are these: IMR90 (lung); concentration series of the labelled inhibitor + fixed concentration of IMT (3S)-1-[(2R)-2-[4-(2-chloro-4-fluoro-phenyl)-2-oxo-chromen-7-yl]oxypropanoyl]piperidine-3-carboxylic acid (Table 3: 40 nM, 120 h); negative=synergistic, positive=antagonistic. As to the method: as §1, §2, §3, §4
The next experiment has as its system U2OS. The conditions noted are these: U2OS (bone); concentration series of the labelled inhibitor + fixed concentration of IMT (3S)-1-[(2R)-2-[4-(2-chloro-4-fluoro-phenyl)-2-oxo-chromen-7-yl]oxypropanoyl]piperidine-3-carboxylic acid (Table 3: 40 nM, 120 h); negative=synergistic, positive=antagonistic. As to the method: as §1, §2, §3, §4
Another experiment deals with A2780. Particulars: A2780 (ovary); concentration series of the labelled inhibitor + fixed concentration of IMT (3S)-1-[(2R)-2-[4-(2-chloro-4-fluoro-phenyl)-2-oxo-chromen-7-yl]oxypropanoyl]piperidine-3-carboxylic acid (Table 3: 40 nM, 120 h); negative=synergistic, positive=antagonistic. As to the method: In two studies, the ovarian cell line A2780 was tested for 72 hours with the IMT N,N-dimethyl-2-[4-(o-tolyl)-2-oxo-chromen-7-yl]oxy-propanamide (30 μM-15 nM) and the MEK inhibitor Selumetinib (30 μM-10 nM), or with the IMT 1-[2-[4-(2-chlorophenyl)-2-oxo-chromen-7-yl]oxypropanoyl]piperidine-3-sulfonamide (30 μM-15 nM) and the MEK inhibitor PD318088 (30 μM-10 nM).
as §1, §2, §3, §4

`Cc1cc(C(=O)NOCCO)c(Nc2ccc(I)cc2F)n(C)c1=O` [AZD8330, 2-((2-Fluoro-4-iodophenyl)amino)-N-(2-hydroxyethoxy)-1,5-dimethyl-6-oxo-1,6-dihydropyridine-3-carboxamide]: the “difference between the calculated combinatorial index (BLISS) and the observed combinatorial effect” value with U87MG is on record as 0.0579; in the experiment on HEPG2 it was 0.0270; in the experiment with MHHES1 it was 0.0682; with MIAPACA2 it was 0.1347; in the experiment with A549, −0.0341; in the experiment on A375, 0.0451. The “difference between the calculated combinatorial index (BLISS) and the observed combinatorial effect” value was 0.0680 with MV4-11; −0.0116 in the experiment with CALU6; 0.0201 with DU145; 0.0127 in the experiment on COLO205; 0.0157 in the experiment on PANC1; 0.0338 with IMR90. Further, the “difference between the calculated combinatorial index (BLISS) and the observed combinatorial effect” value was −0.0171 in the experiment on U2OS and 0.0118 with A2780.

As for `COc1c(OCCCN2CCOCC2)ccc2c1N=C(NC(=O)c1cnc(N)nc1)N1CCN=C21` [BAY 80-6946, 2-Amino-N-{7-methoxy-8-[3-(4-morpholinyl)propoxy]-2,3-dihydroimidazo[1,2-c]quinazolin-5-yl}-5-pyrimidinecarboxamide], the “difference between the calculated combinatorial index (BLISS) and the observed combinatorial effect” value with U87MG was 0.0243; with HEPG2, −0.0273; with MIAPACA2 it was 0.0574; in the experiment with A549, 0.0159; in the experiment with A375, −0.0033; with MV4-11, 0.0337. Also, the “difference between the calculated combinatorial index (BLISS) and the observed combinatorial effect” value in the experiment on CALU6 is reported as 0.0374; in the experiment on DU145, 0.0423; in the experiment with COLO205, 0.0531; in the experiment with PANC1, 0.0174; in the experiment on IMR90, 0.0281; in the experiment with U2OS it was 0.0017. Further, in the experiment on A2780, the “difference between the calculated combinatorial index (BLISS) and the observed combinatorial effect” value is 0.0466.

As to `CS(=O)(=O)N1CCN(Cc2cc3nc(-c4cccc5[nH]ncc45)nc(N4CCOCC4)c3s2)CC1` [GDC-0941, 2-(1H-Indazol-4-yl)-6-[[4-(methylsulfonyl)-1-piperazinyl]methyl]-4-(4-morpholinyl)thieno[3,2-d]pyrimidine], the “difference between the calculated combinatorial index (BLISS) and the observed combinatorial effect” value with U87MG is given as 0.1078; with HEPG2 it was −0.0006; in the experiment with MIAPACA2 it was 0.0516; in the experiment on A549 it was 0.0023; with A375, −0.0654; with MV4-11, 0.0272. The “difference between the calculated combinatorial index (BLISS) and the observed combinatorial effect” value in the experiment on CALU6 was −0.0406; in the experiment on DU145, 0.0436; in the experiment with COLO205 it was 0.0355; in the experiment with PANC1 it was −0.0128; with IMR90 it was 0.0629; in the experiment on U2OS, 0.0451. Besides, the “difference between the calculated combinatorial index (BLISS) and the observed combinatorial effect” value in the experiment on A2780 is 0.0077.

Turning to `C[C@H](Nc1ncnc2nc[nH]c12)c1cc2cccc(Cl)c2c(=O)n1-c1ccccc1` [Duvelisib], the “difference between the calculated combinatorial index (BLISS) and the observed combinatorial effect” value in the experiment with U87MG is recorded as 0.0433; in the experiment on HEPG2, −0.0318; with MIAPACA2, −0.0183; in the experiment with A549 it was −0.0092; with A375, −0.0153; in the experiment with MV4-11, 0.0611. In addition, the “difference between the calculated combinatorial index (BLISS) and the observed combinatorial effect” value with CALU6 is recorded as 0.0342; with DU145, 0.0362; in the experiment on COLO205 it was −0.0157; with PANC1, −0.0096; with IMR90 it was 0.0253; in the experiment on U2OS, −0.0126. For the same molecule, in the experiment on A2780, the “difference between the calculated combinatorial index (BLISS) and the observed combinatorial effect” value is on record as 0.0081.
